Assay results published in patent US20120042398A1, “COMPOSITIONS FOR LABELING AND IDENTIFYING AUTOPHAGOSOMES AND METHODS FOR MAKING AND USING THEM” (SAN DIEGO STATE UNIVERSITY (SDSU) FOUNDATION, priority 2008, published 2012).
Each block holds one compound with its values, some of them ahead of it.

Legend:
HL-1 cells = assay: High-throughput cadaverine plate-reader assay of autophagy (ALEXAFLUOR488-cadaverine fluorescence); assay type: cell-based, Mouse; settings: FIG. 1
Protocol: For 24 Well Plates: • Plate 75,000 cells per well • Wait for cells to achieve approximately 80% confluence (approximately 1 day) • Treat cells (3 h 30 min starvation, 3 mL of medium) • Rinse cells with PBS (1 ml) • Incubate cells with probe for 10 minutes at 37° C. • Wash cells four times with PBS (1 mL) • Lyse cells by incubating in 10 mM Tris-Cl pH 8 containing 0.1% Triton X-100 for 20 minutes (500 uL) • Measure fluorescence in plate reader • Add ethidium bromide to a final concentration of 0.2 mM and measure fluorescence (exc=530 nm; em=590 nm) • Normalize results to the number of cells (ethidium bromide reading)
Probes: • ALEXAFLUOR488™ cadaverine (A30676, Invitrogen, Carlsbad, Calif.) • Final concentration 25 uM, exc=493 nm; em=516 nm. • BODIPY TR™ cadaverine (D6251, Invitrogen, Carlsbad, Calif.) • Final concentration 125 nM, exc=588 nm; em=616 nm.

[1] = test system: autophagic vesicles (AV) in fat body tissue; assay: Staining of fresh Drosophila larval fat body tissue (AV labeling); assay type: cell-based; settings: 10 μM dye, 10 min
Protocol: Staining of Drosophila Tissues. To perform a rapid first-pass examination of the compounds ability to stain AV we examined fat body tissues from wandering 3rd instar Drosophila larvae. 1 mM DMSO stock solutions were prepared for each compound and stored at −20° C. Fat body tissue from wild type fly larvae were dissected from the surrounding cuticle and organs, and placed in 1 ml iced PBS solution. Tissues were immediately stained for 10 min, in a final 10 μM concentration for each dye. Samples were rinsed twice with 1×PBS, mounted with VECTASHIELD™ (Vector Laboratories, Inc, Burlingame, Calif.) and immediately imaged using a scanning confocal fluorescent microscope (Leica, FITC channel). As a positive control, fly tissues (3rd instar) were also stained with BODIPY-TexasRed-cadaverine (Invitrogen, red).

[2] = test system: autophagosomes in heart tissue; assay: Heart perfusion with BODIPY-TR-cadaverine, dye incorporation into autophagosomes read in plate reader; settings: perfused hearts, FIG. 2
Protocol: 1) Mince 1-5 mm^3 tissue sample in 1-2 mL homogenization buffer in 35 mm dish 2) Polytron at ½ speed, 5 sec, on ice in 15 mL round bottom polypropylene tube 3) Spin out nuclei and heavy membranes @ 1000 g, 5 min, 4° C. in 15 mL Falcon tube 4) Move post-nuclear supernatant into 1.5 mL Eppendorf tube 5) Add MDC (or Cadaverine 488) to final concentration of 25 μM 6) Incubate on ice 10 min protected from light 7) Spin sample 20,000×g, 20 min, 4° C. 8) Aspirate supernatant and rinse off pellet with 1 mL cold resuspension buffer 2×'s 9) Resuspend pellet in 350 μL resuspension buffer until mixed evenly 10) Add 100 μL per well in triplicate to black 96-well plate 11) Read on Fluorescence plate reader @ excitation/emission 495 nm/519 nm 12) Use remaining sample to run Bradford assay to quantify protein concentration.
The hearts were perfused with BODIPY-TR™-cadaverine followed by washout, then homogenized and fluorescence read in plate reader. […] FIG. 2 right image is a graph illustrating quantitation of dye incorporation into autophagosomes, with the left column graphically quantitating the upper left image's fluorescence and the right column graphically quantitating the lower left image's (the Tat-Atg5(K130R)-inhibited) fluorescence.

[3] = test system: mCherry-LC3 puncta (autophagosomes) in heart; assay: MDC labeling of cardiac tissue in mCherry-LC3 mice; assay type: in vivo; settings: MDC 1.5 mg/kg i.p. 1 hr before sacrifice, heart sections
Protocol: To examine its labeling profile in cardiac tissues, mCherry-LC3 mice were injected with MDC (1.5 mg/kg i.p.) 1 hr before being sacrificed, e.g., see Iwai-Kanai (2008) supra, Yitzhaki (2009) Basic Res. Cardiol. 104:157-167. Hearts were collected and frozen tissues sections prepared for imaging. Under conditions where autophagy is activated and mCherry-LC3 puncta formed, MDC-labeled structures were similarly up regulated, see FIG. 4, and see e.g. Iwai-Kanai (2008) supra. MDC labeled a subset of mCherry-LC3-positive structures, presumably fused autolysosome vesicles.
FIG. 4 illustrates three images, including mCherry and MDC labeling of vesicles. mCherry-LC3 expressing mice were treated with rapamycin and hearts prepared for fluorescent imaging. […] The right image of FIG. 4 is a merge of the mCherry-LC3 and MDC images.

[4] = Fluorophore properties (pKa, pH stability, photostability, storage stability); assay type: physicochemical; settings: for photostability / photobleaching: normal fluorescence exposure
autophagic vesicles (AV) = assay: MDC staining of AV in cell or tissue preparations; assay type: cell-based
Source text: Initial synthesis of autophagic specific dyes of this invention was based on MDC. […] In alternative embodiments, dyes used in compositions of this invention are vesicle selective, have multiple fluorescent excitation/emission spectra and can be used for several imaging applications. Thus, the new dyes of this invention will greatly benefit autophagy research.

[5] = cited from earlier work
[6] = test system: autophagic vesicles in Atg1-/- fat body tissue; assay: FITC-TG / LYSOTRACKER staining of Atg1-/- mutant fat body tissue; assay type: cell-based, Drosophila; settings: starvation and hormone-dependent induction
Protocol: These studies indicates the FITC-dyes highlight a population of vesicles that are distinct from LYSOTRACKER™ and could be used to study the early in vivo formation, maturation and fusion events of AV within cells. To further confirm the specificity of the FITC-TG AV staining, fat body tissue was prepared from Atg1−/− larvae and compared with wild type controls. Signaling of the Atg1 protein kinase is essential for pathway induction and AV formation, see e.g., (21, 57). In Drosophila loss-of-function mutations in this gene result in late pupal lethality but have a minor impairment on early development, thus providing sufficient material for imaging studies. […] This staining pattern is consistent with lysosomes maturing from the endosomal pathway but AV failing to be formed under normal physiological conditions. FIG. 8 illustrates images of stained tissues from: Fed (left column images), fasted (middle column images) and hormone-induced (“3rd instar” right column images) autophagy profiles in wildtype (upper row images) and Atg1−/− mutant (lower row images) cells. Fat body tissue from larvae that were fed, fasted or undergoing hormone-induced autophagy were collected and stained with LYSOTRACKER™ (red) and the exemplary FITC-TG (green). […] While LYSOTRACKER™ puncta are detected (red) in these Atg1^−/− mutant tissues, the exemplary FITC-TG dye fails to stain autophagosomes or autolysosomes.

SMILES: CO/C1=C\C(C)=C\[C@@H](C)[C@@H](O)[C@@H](C)C/C(C)=C/C=C/[C@H](OC)[C@@H]([C@@H](C)[C@@H](O)[C@H](C)[C@@]2(O)C[C@@H](O)[C@H](C)[C@@H](C(C)C)O2)OC1=O [Bafilomycin A1]
effect on starvation-increased autophagy (relative ALEXAFLUOR488-cadaverine fluorescence normalized to cell number) (HL-1 cells): partially blocked

SMILES: Cl.NCCCCCNC(=O)COc1ccc(C2=[N+]3C(=Cc4ccc(-c5cccs5)n4[B-]3(F)F)C=C2)cc1 [BODIPY-cadaverine, 5-(((4-(4,4-difluoro-5-(2-thienyl)-4-bora-3a,4a-diaza-s-indacene-3-yl)phenoxy)acetyl)amino)pentylamine, hydrochloride]
staining of intracellular vesicles / cytoplasmic puncta in fresh tissue [1]: robust staining pattern

SMILES: CCN(CC)CCCC(C)Nc1ccnc2cc(Cl)ccc12 (centres unmarked) [chloroquine]
effect on starvation-increased autophagy (relative ALEXAFLUOR488-cadaverine fluorescence normalized to cell number) (HL-1 cells): partially blocked

SMILES: Nc1ccc(S(=O)(=O)Nc2ccnn2-c2ccccc2)cc1 [Sulfaphenazole]
effect on autophagy (BODIPY-TR-cadaverine incorporation into autophagosomes) [2]: potent inducer of autophagy

stability during storage [4]: stability issues during storage
photostability / photobleaching [4]: significant photobleaching
SMILES: CN(C)c1cccc2c(S(=O)(=O)NCCCCCN)cccc12 [MDC, monodansylcadaverine]
co-localization of MDC labeling with mCherry-LC3 puncta [3]: excellent co-localization
usability on fixed samples (autophagic vesicles (AV)): cannot be used on fixed samples

photostability / photobleaching [4]: excellent photostability
SMILES: O=C1OC2(c3cc(F)c(O)cc3Oc3cc(O)c(F)cc32)c2ccccc21 [Oregon Green 488, Difluoro-fluorescein]
pKa [5]: 4.7

SMILES: CN(C)CCNC(=O)CCc1ccc2n1[B-](F)(F)[N+]1=C(c3ccc[nH]3)C=CC1=C2 [LYSOTRACKER™]
vesicle staining in Atg1-/- flies [6]: some LYSOTRACKER™ positive staining
